In patent publication US20150072933A1, “NOVEL SEQUENCES FOR THE CONTROL OF REPRODUCTION IN FISH” (Yissum Research Development Company of the Hebrew …, priority 2011, published 2015):
Entries after “also recorded” stand apart in the source; their conditions may differ. *1 amine or outer side, *2 acyl side, *3 side chain or, on linkers, in order; H or OH if unused. Where a SMILES comes first, the peptide text is derived from it. [ ]: non-standard residue; d: D form. NMeF = CN[C@@H](Cc1ccccc1)C(=O)O; Suc = O=C(CCC(=O)[*:2])[*:1]

Key:
[1] = tested on: zfTac3ra; assay: Receptor transactivation assay, CRE-Luc reporter (PKA activation), COS-7 cells expressing zfTac3ra; format: cell-based, zebrafish; settings: mean ± SEM
In short: (§1)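 COS-7 cells were cotransfected with zebrafish tac3ra or tac3rb (or human NK3R), an SRE-Luc (PKC) or CRE-Luc (PKA) reporter and β-galactosidase. After 36 h serum starvation, cells were stimulated with vehicle or various concentrations of human or zebrafish NKBs or analogs for 6 h. Luciferase was normalized to β-galactosidase; triplicates, three independent sets.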

[2] = tested on: zfTac3rb; assay: Receptor transactivation assay, CRE-Luc reporter (PKA activation), COS-7 cells expressing zfTac3rb; format: cell-based, zebrafish; settings: mean ± SEM
In short: as §1

[3] = tested on: zfTac3ra; assay: Receptor transactivation assay, SRE-Luc reporter (PKC activation), COS-7 cells expressing zfTac3ra; format: cell-based, zebrafish; settings: mean ± SEM
In short: as §1

[4] = tested on: zfTac3rb; assay: Receptor transactivation assay, SRE-Luc reporter (PKC activation), COS-7 cells expressing zfTac3rb; format: cell-based, zebrafish; settings: mean ± SEM
In short: as §1

[5] = tested on: sexually mature female zebrafish; assay: In vivo effect of NKBs in zebrafish: LH secretion after intraperitoneal injection; settings: single intraperitoneal injection; for LH secretion: 20 pmol/g body weight, sexually mature female zebrafish
Method: In vivo studies involved administering NKBa, NKBb or NKF and the analogues thereof, denoted by SEQ ID NO. 40-42 and 44-46, respectively to immature fish (20 fish/treatment). The circulating levels of E2, 11KT, LH and FSH were determined prior to hormonal manipulations, in order to confirm that these fish were indeed sexually immature. The fish were injected intramuscularly (i.m.) or intraperitonealy (i.p.) at various doses. Adult female zebra fish were injected intraperitoneally with 20 pmol/g body weight. Control fish were injected with saline. Plasma samples were collected at time 0, and specific times after the administration of the peptide/s, to determine the levels of E2, 11KT, LH and FSH.
To further characterize the role of the NKB/NKBR system in fish reproduction the in vivo biological function of zebrafish NKB peptides was next examined.

[6] = tested on: NK-2; settings: GPI; cited from earlier work
[7] = molecular target: T1, huNK3R (Homo sapiens, UniProt P29371); assay: Receptor transactivation assay, CRE-Luc reporter (PKA activation), COS-7 cells expressing human NK3R; format: cell-based; settings: Table 5, CRE-Luc follows PKA activation, mean ± SEM
T1 construct: host or cells: COS-7
T1 sequence (P29371 1-465): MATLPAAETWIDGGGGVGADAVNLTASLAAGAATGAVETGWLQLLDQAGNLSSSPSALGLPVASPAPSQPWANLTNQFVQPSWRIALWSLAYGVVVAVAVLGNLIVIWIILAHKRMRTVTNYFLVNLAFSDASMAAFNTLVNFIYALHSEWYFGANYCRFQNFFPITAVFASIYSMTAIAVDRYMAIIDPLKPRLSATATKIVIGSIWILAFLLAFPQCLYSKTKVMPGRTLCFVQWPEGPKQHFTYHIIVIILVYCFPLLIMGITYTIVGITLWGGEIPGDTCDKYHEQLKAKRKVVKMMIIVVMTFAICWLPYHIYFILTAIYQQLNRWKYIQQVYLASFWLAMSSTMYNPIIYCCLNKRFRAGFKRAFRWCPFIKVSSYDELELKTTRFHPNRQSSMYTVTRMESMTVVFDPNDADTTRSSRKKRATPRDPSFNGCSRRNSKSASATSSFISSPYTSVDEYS
Method: In order to study the signaling pathways of the novel zebrafish NKBs, the entire coding regions of zftac3ra (denoted by SEQ ID NO:6) or zftac3rb (denoted by SEQ ID NO:7), or the cDNA clone for human NK3R (obtained from the Missouri S&T cDNA Resource Center, were inserted into pcDNA3.1 (Invitrogen). The luciferase assay was conducted according to Biran et al., 2008 [4] COS-7 cells were grown in DMEM supplemented with 10% FBS, 1% glutamine, 100 U/ml penicillin, and 100 mg/ml streptomycin (Biological Industries) under 5% CO2 until confluent. Cotransfection of either pc-zftac3ra, pc-zftac3rb or pc-Htac3r (at 3 μg/plate), a reporter plasmid (at 2 μg/plate), and pCMV-β-galactosidase (at 1 μg/plate) was carried out with FuGENE 6.0 reagent (Roche). The cells were serum starved for 36 h, stimulated with vehicle or various concentrations of either human (Sigma) or zebrafish NKBs for 6 h, and then harvested and analyzed. Lysates prepared from the harvested cells were assayed for both luciferase activity and β-galactosidase activity, which was used as an internal standard to normalize the luciferase activity directed by the test plasmid. […]
The response, binding selectivity and signal transduction pathways of the novel tachykinin receptors to their agonists were evaluated by functional expression analysis, using COS-7 cells. […]

[8] = molecular target: T1, huNK3R; assay: Receptor transactivation assay, SRE-Luc reporter (PKC activation), COS-7 cells expressing human NK3R; format: cell-based
Method: In order to study the signaling pathways of the novel zebrafish NKBs, the entire coding regions of zftac3ra (denoted by SEQ ID NO:6) or zftac3rb (denoted by SEQ ID NO:7), or the cDNA clone for human NK3R (obtained from the Missouri S&T cDNA Resource Center, were inserted into pcDNA3.1 (Invitrogen). The luciferase assay was conducted according to Biran et al., 2008 [4] COS-7 cells were grown in DMEM supplemented with 10% FBS, 1% glutamine, 100 U/ml penicillin, and 100 mg/ml streptomycin (Biological Industries) under 5% CO2 until confluent. Cotransfection of either pc-zftac3ra, pc-zftac3rb or pc-Htac3r (at 3 μg/plate), a reporter plasmid (at 2 μg/plate), and pCMV-β-galactosidase (at 1 μg/plate) was carried out with FuGENE 6.0 reagent (Roche). The cells were serum starved for 36 h, stimulated with vehicle or various concentrations of either human (Sigma) or zebrafish NKBs for 6 h, and then harvested and analyzed. Lysates prepared from the harvested cells were assayed for both luciferase activity and β-galactosidase activity, which was used as an internal standard to normalize the luciferase activity directed by the test plasmid. Transfection experiments were performed in triplicate with three independently isolated sets.
To validate the specificity of the serum-responsive element (SRE)-Luc and cAMP-responsive element (CRE)-Luc reporter systems, specific activators for PLC/PKC and AC/PKA signaling pathways were used in control experiments.

[9] = molecular target: T2, NKB receptors (human NKBR, zebrafish Tac3ra, Tac3rb) (Homo sapiens, UniProt P29371); assay: Receptor transactivation assay, statements in words across SRE-Luc and CRE-Luc reporters and receptors; format: cell-based; settings: human NKBR (huNK3R), in both signal transduction systems (SRE-Luc and CRE-Luc)
T2 construct: expressed in transfected cells; host or cells: COS-7
T2 sequence (P29371 1-465): T1 sequence (P29371 1-465)
Method: (§2) In order to study the signaling pathways of the novel zebrafish NKBs, the entire coding regions of zftac3ra (denoted by SEQ ID NO:6) or zftac3rb (denoted by SEQ ID NO:7), or the cDNA clone for human NK3R (obtained from the Missouri S&T cDNA Resource Center, were inserted into pcDNA3.1 (Invitrogen). The luciferase assay was conducted according to Biran et al., 2008 [4] COS-7 cells were grown in DMEM supplemented with 10% FBS, 1% glutamine, 100 U/ml penicillin, and […] streptomycin (Biological Industries) under 5% CO2 until confluent. Cotransfection of either pc-zftac3ra, pc-zftac3rb or pc-Htac3r (at 3 μg/plate), a reporter plasmid (at 2 μg/plate), and pCMV-β-galactosidase (at 1 μg/plate) was carried out with FuGENE 6.0 reagent (Roche). The cells were serum starved for 36 h, stimulated with vehicle or various concentrations of either human (Sigma) or zebrafish NKBs for 6 h, and then harvested and analyzed. Lysates prepared from the harvested cells were assayed for both luciferase activity and β-galactosidase activity, which was used as an internal standard to normalize the luciferase activity directed by the test plasmid. Transfection experiments were performed in triplicate with three independently isolated sets. Protein structure prediction of zebrafish NKBa, NKBb or NKF were performed on I-Tasser servers.
(§3) The response, binding selectivity and signal transduction pathways of the novel tachykinin receptors to their agonists were evaluated by functional expression analysis, using COS-7 cells.
(§4) Thus, the ability of the three novel piscine peptides (namely, NKBa, NKBb and NKF, denoted by SEQ ID NO.40, 41 and 42), as well as the ability of the three analogous agonistic peptides, namely, NKBa-analog, NKBb-analog and NKF-analog, to differentially activate the different tac3 receptors, using SRE as a reporter gene that follows PKC activation and CRE as a reporter gene for the PKA pathway, was tested. Human NK3R (human NKB receptor) and human NKB served as controls.

[10] = tested on: NKB receptors (human NKBR, zebrafish Tac3ra, Tac3rb); assay: as above; format: cell-based; settings: both zebrafish tac3 receptors, in both signal transduction systems
Method: as §2, §3, §4

[11] = Table 5, COS-7 cells, CRE-Luc follows PKA activation, read-out: EC50 CRE-Luc zfTac3ra
[12] = Table 6 (native peptides and analogues), PKA activation, read-out: EC50 using CRE-Luc, zfTac3ra
[13] = Table 5, COS-7 cells, CRE-Luc follows PKA activation, read-out: EC50 CRE-Luc zfTac3rb
[14] = Table 6 (native peptides and analogues), PKA activation, read-out: EC50 using CRE-Luc, zfTac3rb
[15] = Table 5, COS-7 cells, SRE-Luc follows PKC activation, read-out: EC50 SRE-Luc zfTac3ra
[16] = Table 7 (native peptides and analogues), PKC activation, read-out: EC50 using SRE, zfTac3ra
[17] = Table 5, COS-7 cells, SRE-Luc follows PKC activation, read-out: EC50 SRE-Luc zfTac3rb
[18] = Table 7 (native peptides and analogues), PKC activation, read-out: EC50 using SRE, zfTac3rb

| EC50 [7] [nM] | SRE-driven luciferase activity, response ([8]; COS-7 cells transiently transfected with human NK3R) | EC50 ([8]; Table 5, COS-7 cells, SRE-Luc follows PKC activation, mean ± SEM) [nM] | potency [9] | Structure (SMILES) | EC50 [1, 11] [nM] | EC50 [1, 12] [nM] | EC50 [2, 13] [nM] | EC50 [2, 14] [nM] | EC50 [3, 15] [nM] | EC50 [3, 16] [nM] | EC50 [4, 17] [nM] | EC50 [4, 18] [nM] | LH secretion [5] | EC50 [6] [nM] | potency [10] | magnitude of the induced LH discharge ([5]; compared with GnRH) |
| --- | --- | --- | --- | --- | --- | --- | --- | --- | --- | --- | --- | --- | --- | --- | --- | --- |
|  |  |  |  | CSCC[C@H](NC(=O)[C@H](CC(C)C)NC(=O)CNC(=O)[C@H](Cc1ccccc1)N(C)C(=O)[C@H](Cc1ccccc1)NC(=O)[C@H](CC(=O)O)NC(=O)CCC(=O)O)C(N)=O [Senktide, Succ-Asp-Phe-N(Me)Phe-Gly-Leu-Met-NH2, reference compound] (Suc-DF[NMeF]GLM-NH2) | 49 ± 14.9 | 49 ± 14.9 | 20.1 ± 15.1 | 20.1 ± 15.1 | 2.67 ± 1.44 | 2.68 ± 1.44 | 2.72 ± 1.54 | 2.72 ± 1.54 | less pronounced | > 200000 |  |  |
| 4.36 ± 1.25 | elicited an increased response | 0.52 ± 0.18 | high potency | CC[C@H](C)[C@H](NC(=O)[C@H](CC(=O)O)NC(=O)[C@H](CC(N)=O)NC(=O)[C@@H](N)Cc1ccc(O)cc1)C(=O)N[C@@H](CC(=O)O)C(=O)N[C@@H](Cc1ccc(O)cc1)C(=O)N[C@@H](CC(=O)O)C(=O)N[C@@H](CO)C(=O)N[C@@H](Cc1ccccc1)C(=O)N[C@H](C(=O)NCC(=O)N[C@@H](CC(C)C)C(=O)N[C@@H](CCSC)C(N)=O)C(C)C [zfNKF] (H-YNDIDYDSFVGLM-NH2) | 4.94 ± 1.83 | 4.94 ± 1.83 | 1.8 ± 1.55 | 1.8 | 0.54 ± 0.13 | 0.55 | 0.36 ± 0.16 | 0.37 ± 0.16 | significant increase; also recorded: significant LH secretion |  | most potent among all tachykinins examined | comparable with that observed in response to GnRH |
